Source: patent publication EP0320984A2, “1,4-Dihydropyridine derivatives” (FUJIREBIO INC., priority 1987, dated 1989)

Columns and labels:
Thoracic aortas = assay: Inhibitory activity on KCl-induced contraction of aorta (helical strips of thoracic aorta); set-up: species or system male rabbits; details: 10^-6M, 60min after addition; 30 mM KCl, rabbit aorta strips, 37°C
Method: 2. Experiment for inhibitory activity on KCl-induced contraction of aorta: Thoracic aortas were isolated from male rabbits and cut into helical strips. The preparations were mounted vertically in organ baths containing 30 ml of Krebs- Henseleit solution. […] Test and reference compounds were added to the bath 30 minutes after KCl treatment.

[1] = system: Rabbit platelet rich plasma (PRP); assay: Inhibitory activity on platelet aggregation in rabbit platelet rich plasma (light transmission); type: cell-based; details: added to PRP 30 minutes before agent; for Inhibitory activity on platelet aggregation, PAF: compound 3x10^-6 (unit not given), Platelet activating factor (PAF) 10 mg/ml; for Inhibitory activity on platelet aggregation, ADP / Inhibitory activity on platelet aggregation, AA / Inhibitory activity on platelet aggregation, Collagen: compound 10^-4 (unit not given); for Inhibitory activity on platelet aggregation, ADP: Adenosine diphosphate (ADP) 5 mM; for Inhibitory activity on platelet aggregation, AA: Arachidonic acid (AA) 1 mM; for Inhibitory activity on platelet aggregation, Collagen: aggregating agent collagen
Method: 3. Experiment for inhibitory activity on platelet aggregation in rabbit:
Rabbit platelet rich plasma (PRP) was prepared by centrifugation of the citrated blood at 380 g for 10 minutes at 20°C. Test solution (10 µl) was added to PRP (200 µl) 30 minutes before treatment of aggregation agents (10 µl). The extent of aggregation was expressed with the maximum change in light transmission for PRP and platelet poor plasma was taken as a value of 100%

| Compound | Inhibitory effect on KCl-induced contraction (Thoracic aortas) [%] | Inhibitory activity on platelet aggregation, PAF [1] [%] | Inhibitory activity on platelet aggregation, ADP [1] [%] | Inhibitory activity on platelet aggregation, AA [1] [%] | Inhibitory activity on platelet aggregation, Collagen [1] [%] |
| --- | --- | --- | --- | --- | --- |
| C/C=C/C=C/COC(=O)C1=C(C)NC(C)=C(C(=O)OC/C=C/c2ccc(Cn3ccnc3)cc2)C1c1cccc([N+](=O)[O-])c1 (stereo not drawn) [Example 15, (E)-2,(E)-4-hexadien-1-yl (E)-3-{4-(1-imidazolylmethyl)phenyl}2-propen-1-yl 1,4-dihydro-2,6-dimethyl-4-(3-nitrophenyl)pyridine-3,5-dicarboxylate] | 21.6 | 74.1 | 8.8 | 30.2 | 10.5 |
| COC(=O)C1=C(C)NC(C)=C(C(=O)OC/C=C/c2ccc(Cn3ccnc3)cc2)C1c1cccc(C(F)(F)F)c1 (stereo not drawn) [Example 17, (E)-3-{4-(1-imidazolylmethyl)phenyl}-2-propen-1-yl methyl 1,4-dihydro-2,6-dimethyl-4-(3-trifluoromethylphenyl)pyridine-3,5-dicarboxylate] | – | 39.7 | 10.5 | 37.8 | 55.0 |
| COC(=O)C1=C(C)NC(C)=C(C(=O)OC/C=C/c2ccc(Cn3ccnc3)cc2)C1c1ccccc1C#N (stereo not drawn) [Example 18, (E)-3-{4-(1-imidazolylmethyl)phenyl}-2-propen-1-yl methyl 1,4-dihydro-2,6-dimethyl-4-(2-cyanophenyl)pyridine-3,5-dicarboxylate] | – | 48.6 | 8.8 | 30.4 | 61.8 |
| COC(=O)C1=C(C)NC(C)=C(C(=O)OC/C=C/C=C/c2ccc(Cn3ccnc3)cc2)C1c1cccc([N+](=O)[O-])c1 (stereo not drawn) [Example 19, 5-{4-(1-imidazolylmethyl)phenyl}-(E)-2,(E)-4-pentadien-1-yl methyl 1,4-dihydro-2,6-dimethyl-4-(3-nitrophenyl)pyridine-3,5-dicarboxylate] | 68.8 | 41.5 | 17.2 | 35.5 | 66.3 |
| COC(=O)C1=C(C)NC(C)=C(C(=O)OC/C=C/c2ccccc2Cn2ccnc2)C1c1cccc([N+](=O)[O-])c1 (stereo not drawn) [Example 20, (E)-3-{2-(1-imidazolylmethyl)phenyl}-2-propen-1-yl methyl 1,4-dihydro-2,6-dimethyl-4-(3-nitrophenyl)pyridine-3,5-dicarboxylate] | – | 0 | 9.5 | 30.4 | 32.3 |
| COC(=O)C1=C(C)NC(C)=C(C(=O)OC/C=C/c2cccc(Cn3ccnc3)c2)C1c1cccc([N+](=O)[O-])c1 (stereo not drawn) [Example 21, (E)-3-{3-(1-imidazolylmethyl)phenyl}-2-propen-1-yl methyl 1,4-dihydro-2,6-dimethyl-4-(3-nitrophenyl)pyridine-3,5-dicarboxylate] | – | 25.4 | 17.3 | 37.6 | 29.5 |
| COC(=O)C1=C(C)NC(C)=C(C(=O)OC/C=C/c2ccc(Cn3ccnc3)cc2)C1c1cccnc1 (stereo not drawn) [Example 22, (E)-3-{4-(1-imidazolylmethyl)phenyl}-2-propen-1-yl methyl 1,4-dihydro-2,6-dimethyl-4-(3-pyridyl)pyridine-3,5-dicarboxylate] | – | 0 | 14.7 | 23.2 | 24.7 |
| COC(=O)C1=C(C)NC(C)=C(C(=O)OC/C=C/c2ccc(Cn3ccnc3)cc2)C1c1ccnc2ccccc12 (stereo not drawn) [Example 23, (E)-3-{4-(1-imidazolylmethyl)phenyl}-2-propen-1-yl methyl 1,4-dihydro-2,6-dimethyl-4-(4-quinolyl)pyridine-3,5-dicarboxylate] | – | 0 | 2.6 | 25.7 | 29.5 |
| COC(=O)C1=C(C)NC(C)=C(C(=O)OC/C=C/c2ccc(C(C)n3ccnc3)cc2)C1c1cccc([N+](=O)[O-])c1 (stereo not drawn) [Example 24, (E)-3-{4-{1-(1-imidazolyl)ethyl}phenyl}-2-propen-1-yl methyl 1,4-dihydro-2,6-dimethyl-4-(3-nitrophenyl)pyridine-3,5-dicarboxylate] | 74.3 | 18.3 | 7.8 | 28.2 | 27.5 |
| COC(=O)C1=C(C)NC(C)=C(C(=O)OC/C=C/c2cccc(Cn3ccnc3)n2)C1c1cccc([N+](=O)[O-])c1 (stereo not drawn) [Example 25, (E)-3-{6-(1-imidazolylmethyl)pyridine-2-yl}-2-propen-1-yl methyl 1,4-dihydro-2,6-dimethyl-4-(3-nitrophenyl)pyridine-3,5-dicarboxylate] | – | 28.5 | 0 | 27.8 | 22.5 |
| COC(=O)C1=C(C)NC(C)=C(C(=O)OCCON=Cc2ccc(Cn3ccnc3)cc2)C1c1cccc([N+](=O)[O-])c1 (stereo not drawn) [Example 26, 2-[{4-(1-imidazolylmethyl)benzylideneamino}oxy]ethyl methyl 1,4-dihydro-2,6-dimethyl-4-(3-nitrophenyl)pyridine3,5-dicarboxylate] | – | 30.0 | 6.0 | 27.6 | 13.5 |
| COC(=O)C1=C(C)NC(C)=C(C(=O)OCCN(C)Cc2ccccc2)C1c1cccc([N+](=O)[O-])c1.Cl (stereo not drawn) [NICARDIPINE, 1,4-dihydro-2,6-dimethyl-4-(3-nitrophenyl)pyridine-3,5-dicarboxylic acid-3-[2-(N-benzyl-N-methylamino)ethyl]ester-5-methyl ester hydrochloride, reference compound] | 91.1 | – | 6.9 | – | 3.6 |
| COC(=O)C1=C(C)NC(C)=C(C(=O)OC)C1c1ccccc1[N+](=O)[O-] [NIFEDIPINE, 1,4-dihydro-2,6-dimethyl-4-(2-nitrophenyl)pyridine-3,5-dicarboxylic acid dimethyl ester, reference compound] | 87.6 | – | 0 | 0.2 | 5.1 |
